The record followed here is patent US20220323443A1, “COMBINATION THERAPY FOR CANCER TREATMENT” (TAKEDA PHARMACEUTICAL COMPANY LIMITED, priority 2019, published 2022).

The subject of assay [1] is Twelve cancer cell lines (A549, BxPC3, Calu-1, COLO205, KYSE140, KYSE150, KYSE520, KYSE70, MIA PaCa-2, NCI-H292, PANC1, and RKO). As to the kind of experiment: CRISPR-Cas9 knock-out screening for genes sensitizing to compound 1. The assay is classed as cell-based. The following applies: hit genes: ES<0 and p-value <0.05, control vs low dose compound 1, in more than three cancer cell lines.

Assay [2] relates to H22 (Hepatoma). The experiment in a line: In vivo combination study, syngeneic mouse tumor isograft model. The following applies: note to Table 9; by note order: Anti-mCTLA-4 study in H22 (55 mm^3). Here is the method:
(§1) To investigate in vivo antitumor activity of Compound 1 in combination with other agents, tests using Cell Derived Xenograft (CDX), Patient Derived Xenograft (PDX) and Syngeneic mouse tumor isograft model were conducted. Cells or Patient Derived Tumors were inoculated by one method of the following two methods (Method A and B) as shown Table 7.
(§2) Method A; Cells were maintained in either immune deficient nude mice or immune competent mice by subcutaneous inoculation of tumor cells at various concentrations into respected mice. Method B: Patient Derived Tumor s were maintained in nude mice by subcutaneous inoculation of tumor pieces (approx. 2×2×2 mm) into nude mice. Mice with tumor size of approximately 50 mm^3 (e.g., 40-75 mm^3) for syngeneic mouse studies or 200 mm^3 (e.g., 110-270 mm^3) for xenograft studies were randomly assigned to dose groups on the day (Day 0) before start date of dosing.
(§3) Compound 1 (crystalline form I) was suspended in 0.5 w/v % methylcellulose and administered orally to mice. Antibodies which administered in the experiment were described in Table 8.
(§4) Tumor size was measured by caliper and tumor volume was estimated using the equation V=(LW^2)/2, where L and W are tumor length and width, respectively and reported in cubic millimeters.
(§5) These values were compared across treatment groups to assess whether the differences in the trends over time were statistically significant. To compare pairs of treatment groups, the following mixed-effects linear regression model was fit to the data using the maximum likelihood method:
(§6) For synergy analyses, the observed differences in the log tumor values were used to calculate AUC values for each animal. In instances when an animal in a treatment group was removed from the study, the last observed tumor value was carried forward through all subsequent time points. The AUC for the control, or vehicle, group was calculated using the predicted values from the pairwise models described above. We defined a measure of synergy as follows:
(§7) where Ak and Bk are the k^th animal in the individual treatment groups and ABk is the k^th animal in combination treatment group. AUCcd is the model-predicted AUC for the control group and was treated as a constant with no variability. The standard error of the synergy score was calculated as the square root of the sum of squared standard errors across groups A, B, and AB. The degrees of freedom were estimated using the Welch-Satterthwaite equation. A hypothesis test was performed to determine if the synergy score differed from 0. P values were calculated by dividing the synergy score by its standard error and tested against a t-distribution (two-tailed) with the above-calculated degrees of freedom.
(§8) The effect was classified into four different categories. It was considered synergistic if the synergy score was less than 0 and additive if the synergy score wasn't statistically different from 0. If the synergy score was greater than zero, but the mean AUC for the combination was lower than the lowest mean AUC among the two single agent treatments, then the combination was sub-additive. If the synergy score was greater than zero, and the mean AUC for the combination was greater than the mean AUC for at least one of the single agent treatments, then the combination was antagonistic.

Assay [3] concerns Panc02 (Pancreatic). Described as above. The following applies: note to Table 9. As to the method: as §1, §2, §3, §4, §5, §6, §7, §8
Assay [4] deals with JC (Breast). Described as above. The following applies: note to Table 9. Here is the method: as §1, §2, §3, §4, §5, §6, §7, §8
For assay [5], the system named is J558 mouse plasmacytoma tumors. The description is as above. The following applies: note to Table 9. As to the method:
as §1, §2, §3, §4, §5, §6, §7, §8

Assay [6] deals with A20 (Lymphoma). Described as above. The following applies: note to Table 9.
Assay [7] has as its system COLO205 human colorectal adenocarcinoma xenografts. The experiment in a line: In vivo antitumor activity of Compound 1 and irradiation in nude mice. Also on record: species or system mouse. The conditions noted are these: Compound 1 40 mg/kg orally once daily Day 1-14 combined with irradiation 3 Gy on Day 1, 2, 3, 8, 9, 10. As to the method:
Human colorectal carcinoma cell line, COLO205 xenograft model was established by subcutaneous injection of cell suspension (5×10^6 cells/100 μl/site, in 1:1 mixture of Hanks' balanced salt and BD Matrigel™ Matrix (BD biosciences)). Mice with tumor size of approximately 200 mm^3 were randomly assigned to dose groups on the day before start date of dosing (Day 0). Compound 1 was suspended in 0.5 w/v % methylcellulose and administered orally to mice at a dose of 40 mg/kg once daily on Day 1-14. Mice in irradiation groups were irradiated at a dose of 3 Gy daily on Day 1, 2, 3, 8, 9 and 10 under pentobarbital anesthesia. Tumors on the flanks of the mice were irradiated using an X-ray irradiator (MBR-1520R-3, Hitachi Power Solutions Co., Ltd., Ibaraki) and non-tumor part of mice were shielded by lead plate. Tumor size was measured by caliper and tumor volume was estimated using the equation V=(LW^2)/2, where L and W are tumor length and width, respectively and reported in cubic millimeters (FIG. 3).

As to `Cc1[nH]ncc1-c1cc2nc([C@@H]3CC4CCN3CC4)[nH]c(=O)c2s1` [Compound 1, 2-[(2S)-1-azabicyclo[2.2.2]oct-2-yl]-6-(3-methyl-1H-pyrazol-4-yl)thieno[3,2-d]pyrimidin-4(3H)-one], the “sensitivity of cancer cells with mutation or deletion of at least one sensitizing hit gene” value in assay [1] was “more sensitive”. The CR per group was 0 in assay [2]; 0 CR in PD-1 group and 0 CR in Compound 1 group, and 0 CR in Compound 1/PD-1 combo group in assay [3] (by note order: Anti-mPD-1 study in Panc02 (75 mm^3)); 0 CR in Gemcitabine group and 0 CR in Compound 1 group, and 0 CR in Compound 1/Gemcitabine combo group in assay [3] (by note order: Gemcitabine study in Panc02 (75 mm^3)); 0 CR in CTLA-4 group and 0 CR in Compound 1 group, and 0 CR in Compound 1/CTLA-4 combo group in assay [4] (by note order: Anti-mCTLA-4 study in JC (60 mm^3)); 0 CR in PD-1 group and 0 CR in Compound 1 group, and 0 CR in Compound 1/PD-1 combo group in assay [4] (by note order: Anti-mPD-1 study in JC (60 mm^3)); 2 in assay [5] (by note order: Anti-mCTLA-4 study in J558 (30 mm^3)). The CR per group in assay [5] (by note order: Anti-mPD-1 study in J558 (30 mm^3)) was 2; in assay [5] (by note order: Anti-mPD-L1 study in J558 (30 mm^3)), 2; in assay [6] (by note order: Anti-mPD-1 study in A20 (61 mm^3)), 1; in assay [6] (by note order: NKTR-214 + anti-mPD-1 study in A20 (61 mm^3)), 1; in assay [6] (by note order: NKTR-214 study in A20 (61 mm^3)), 1. The “antitumor activity (tumor volume)” value in assay [7] is “strong antitumor activity and enhanced antitumor efficacy compared to either single treatment alone”.
